The experiment deals with Plasmodium berghei. Kind of experiment: Luciferase/luciferin-expressing antifolate-resistant parasites were used to infect a culture of HepG2 cells that were pre-incubated with compounds. Infected hepatocytes emit light due to the luciferase reaction. Assay results are presented as the percent inhibition of light emission compared to control. […]. It counts as functional. The conditions noted are these: sporozoite; for IC90: read-out: LUCIFERASE INFECTION ASSAY - IC90.

Where [1] appears, read: read-out: LUCIFERASE INFECTION ASSAY - IC50.

We go through 39 compounds from ChEMBL document CHEMBL4483862, “Open-source discovery of chemical leads for next-generation chemoprotective antimalarials” (2018).

The structures appear in SMILES notation. pIC50: −log10 of the molar value. Bounds are passed on as bounds.

The pIC50 is the negative decadic logarithm of the IC50, by convention in mol/L. In general, IC90 refers to the concentration at which the effect reaches the 90% level. Regarding `Cc1nc(C(=N)NOC(=O)c2c(-c3c(Cl)cccc3Cl)noc2C)cs1`, the 90% effect concentration (IC90) is 1.24 µM. Moreover, the pIC50 (HEPG2TOX_HILL_SLOPE 7.11, HEPG2TOX_R_SQUARED 0.0768, PBLUC_HILL_SLOPE 8.1, PBLUC_R_SQUARED 0.284, read-out: LUCIFERASE INFECTION ASSAY - IC50) is 6.02.

As to `C#CCOc1ccc(CNCCc2ccccc2)cc1OCC`, the concentration for an effect of 90% (IC90) is above 9.54 µM. Further, the pIC50 (PBLUC_HILL_SLOPE 6.85, PBLUC_R_SQUARED 0.0184, read-out: LUCIFERASE INFECTION ASSAY - IC50) is below 5.02.

Consider `Oc1ccccc1/C=N/Nc1cccc(C(F)(F)F)c1`, for which the IC90 was above 11.8 µM. Also, the pIC50 (HEPG2TOX_HILL_SLOPE 6.57, HEPG2TOX_R_SQUARED 0.439, PBLUC_HILL_SLOPE 2.9, PBLUC_R_SQUARED 0.288, read-out: LUCIFERASE INFECTION ASSAY - IC50) was below 4.93.

Regarding `O=C(Nc1cc(Cl)cc(Cl)c1)N1CCC(n2cccc2)CC1`, the IC90 is above 9.76 µM. For the same compound, under setting [1], the pIC50 was below 5.01.

Turning to `FC(F)Oc1ccc(-c2cs/c(=N\c3cccnc3)n2CC2CCCO2)cc1` (stereo not drawn), the 90% effect concentration (IC90) was above 10 µM. In addition, the pIC50 under setting [1] is 5.38.

With `Cc1cc(C(=O)N/N=C/c2ccc([N+](=O)[O-])s2)nn1-c1c(Cl)cc(Cl)cc1Cl`, the 90% effect concentration (IC90) came to 4.83 µM. Moreover, under “FFLUC_HILL_SLOPE 59.9, FFLUC_R_SQUARED 0.709, PBLUC_HILL_SLOPE 2.3, PBLUC_R_SQUARED 0.454, read-out: LUCIFERASE INFECTION ASSAY - IC50”, the pIC50 is 5.73.

Take `COCOc1ccc(-c2cc(-c3ccc(OC)c(OC)c3)cnc2N)cc1`: the 90% effect concentration (IC90) is above 9.01 µM. Also, where the note is “PBLUC_HILL_SLOPE 4.72, PBLUC_R_SQUARED 0.371, read-out: LUCIFERASE INFECTION ASSAY - IC50”, the pIC50 was 5.14.

Consider `O=C(Nc1ccccc1Cc1ccccc1)c1cc2c(nc3sccn32)s1`, for which the IC90 is 4.88 µM. Moreover, the negative logarithm of the IC50 (pIC50) (PBLUC_HILL_SLOPE 1.68, PBLUC_R_SQUARED 0.818, read-out: LUCIFERASE INFECTION ASSAY - IC50) is 5.88.

`CCCCc1[nH]nc2ccnc(-c3ccc(OC)c(OC)c3)c12`: the 90% effect concentration (IC90) came to 1.3 µM. The pIC50 under setting [1] is 6.01.

As for `Fc1ccc(-c2cs/c(=N\CC3CCCO3)n2/N=C/c2ccccc2F)cc1` (stereo not drawn), the concentration for an effect of 90% (IC90) is above 10 µM. For the same compound, the pIC50 (HEPG2TOX_HILL_SLOPE 2.73, HEPG2TOX_R_SQUARED 0.938, PBLUC_HILL_SLOPE 4.49, 0.768, PBLUC_R_SQUARED 0.141, 0.452, read-out: LUCIFERASE INFECTION ASSAY - IC50) is 5.26.

`N#C/C(=C\Nc1cc(C(F)(F)F)cc(C(F)(F)F)c1)S(=O)(=O)c1ccccc1`: the IC90 was above 7.85 µM. The pIC50 (FFLUC_HILL_SLOPE 0.883, FFLUC_R_SQUARED 0.592, HEPG2TOX_HILL_SLOPE 1.61, HEPG2TOX_R_SQUARED 0.979, PBLUC_HILL_SLOPE 2.79, PBLUC_R_SQUARED 0.181, read-out: LUCIFERASE INFECTION ASSAY - IC50) was 5.36.

As to `FC(F)Oc1ccc(-c2csc(COc3ccc(C4SCCS4)cc3)n2)cc1`, the IC90 was above 7.54 µM. The pIC50 under setting [1] is 5.43.

Regarding `N#Cc1ccc(NC(=O)NNc2ccc(Cl)cc2Cl)cc1`, the 90% effect concentration (IC90) was above 10 µM. Also, the pIC50 (PBLUC_HILL_SLOPE 16.6, PBLUC_R_SQUARED 0.338, read-out: LUCIFERASE INFECTION ASSAY - IC50) is 5.02.

Consider `CC(NC(=O)c1cn(C)c2ccccc12)c1ccccn1` (stereo not drawn), for which the concentration for an effect of 90% (IC90) is above 2 µM. Besides, the pIC50 under setting [1] is below 5.70.

For the compound `Cc1cc(OCc2nc3ccc(Cl)cc3[nH]2)c(C(C)C)cc1Cl`, the concentration for an effect of 90% (IC90) was above 10 µM. The pIC50 under setting [1] was below 5.00.

As to `CCCCNC(=S)NN=C(c1ccccc1)c1ccccc1`, the IC90 is above 10 µM. Also, the pIC50 under setting [1] was below 5.00.

As to `CNc1nc(-c2cccnc2)nc2sc(-c3ccccc3)cc12`, the concentration for an effect of 90% (IC90) was above 10 µM. Further, where the note is “PBLUC_HILL_SLOPE 3.26, PBLUC_R_SQUARED 0.654, read-out: LUCIFERASE INFECTION ASSAY - IC50”, the negative-log IC50 (pIC50) is 5.21.

Consider `CCn1nc(C)cc1-c1nnc(Sc2ncc([N+](=O)[O-])s2)n1C`, for which the IC90 was 8.02 µM. Besides, under “FFLUC_HILL_SLOPE 4.24, FFLUC_R_SQUARED 0.134, HEPG2TOX_HILL_SLOPE 11.7, HEPG2TOX_R_SQUARED 0.968, PBLUC_HILL_SLOPE 3.63, PBLUC_R_SQUARED 0.242, read-out: LUCIFERASE INFECTION ASSAY - IC50”, the negative-log IC50 (pIC50) was 5.36.

With `Cc1c(/N=c2\scc(-c3cc4ccccc4o3)n2/N=C/c2ccsc2)c(=O)n(-c2ccccc2)n1C`, the IC90 was found to be 4.03 µM. Where the note is “PBLUC_HILL_SLOPE 16.9, PBLUC_R_SQUARED 0.235, read-out: LUCIFERASE INFECTION ASSAY - IC50”, the pIC50 was 5.45.

On to `CC(OC(=O)c1c2c(nc3ccccc13)/C(=C/c1cccs1)CCC2)C(=O)Nc1ccccc1C#N` (stereo not drawn), for which the concentration for an effect of 90% (IC90) was 3.58 µM. Besides, the negative-log IC50 (pIC50) (FFLUC_HILL_SLOPE 1.58, FFLUC_R_SQUARED 0.34, HEPG2TOX_HILL_SLOPE 8.31, HEPG2TOX_R_SQUARED 0.803, PBLUC_HILL_SLOPE 17.4, PBLUC_R_SQUARED 0.614, read-out: LUCIFERASE INFECTION ASSAY - IC50) was 5.50.

On to `CNc1snc(C)c1C(=O)OCCCOC(=O)c1c(C)nsc1NC`, for which the concentration for an effect of 90% (IC90) came to 6.67 µM. Besides, the negative-log IC50 (pIC50) (PBLUC_HILL_SLOPE 109, PBLUC_R_SQUARED 0.523, read-out: LUCIFERASE INFECTION ASSAY - IC50) is 5.18.

As to `CC(=O)NCCCc1ccc(C(=O)COC(=O)c2cc(Cl)c[nH]2)cc1`, the IC90 is above 10 µM. The negative logarithm of the IC50 (pIC50) (FFLUC_HILL_SLOPE 2.83, FFLUC_R_SQUARED 0.674, read-out: LUCIFERASE INFECTION ASSAY - IC50) is below 5.00.

Consider `COc1ccccc1-c1nnc(SC(C(=O)Nc2cc(Cl)cc(Cl)c2)c2ccccc2)o1` (stereo not drawn), for which the concentration for an effect of 90% (IC90) was 7.61 µM. For the same compound, the pIC50 (HEPG2TOX_HILL_SLOPE 8.26, HEPG2TOX_R_SQUARED 0.825, PBLUC_HILL_SLOPE 4.24, PBLUC_R_SQUARED 0.374, read-out: LUCIFERASE INFECTION ASSAY - IC50) is 5.34.

`N#Cc1c(Cl)cccc1N1CCOCC1`: the IC90 was above 14.8 µM. Also, the negative logarithm of the IC50 (pIC50) (FFLUC_HILL_SLOPE 1.9, FFLUC_R_SQUARED 0.649, HEPG2TOX_HILL_SLOPE 2.33, HEPG2TOX_R_SQUARED 0.905, PBLUC_HILL_SLOPE 3.58, PBLUC_R_SQUARED 0.165, read-out: LUCIFERASE INFECTION ASSAY - IC50) is 4.85.

With `C(=N\c1ccc2ccccc2c1)/Nc1ccc2ccccc2c1`, the 90% effect concentration (IC90) was above 11.1 µM. Moreover, the pIC50 (HEPG2TOX_HILL_SLOPE 0.512, HEPG2TOX_R_SQUARED 0.0455, PBLUC_HILL_SLOPE 17.2, PBLUC_R_SQUARED 0.33, read-out: LUCIFERASE INFECTION ASSAY - IC50) was 4.97.

As to `Cc1ccc(NC(=O)C2(C)CCN2Cc2ccccc2Cl)cc1O` (stereo not drawn), the IC90 was above 9.57 µM. Besides, the pIC50 (PBLUC_HILL_SLOPE 11.9, PBLUC_R_SQUARED 0.388, read-out: LUCIFERASE INFECTION ASSAY - IC50) was 5.06.

On to `O=C(NCc1cc(C(F)(F)F)cc(C(F)(F)F)c1)c1ccc(Cl)c(Cl)c1`, for which the IC90 was above 7.93 µM. In addition, the pIC50 under setting [1] is below 5.10.

For `c1ccc2c(c1)[nH]c1nc(SCc3cn4ccsc4n3)nnc12`, the IC90 was found to be 1.85 µM. Further, the pIC50 (PBLUC_HILL_SLOPE 2.76, PBLUC_R_SQUARED 0.824, read-out: LUCIFERASE INFECTION ASSAY - IC50) is 6.08.

As to `O=C(NC1CC1)c1ccc(-c2cnn3c(NCc4ccc(F)cc4)ccnc23)cc1`, the 90% effect concentration (IC90) is above 8.22 µM. The negative logarithm of the IC50 (pIC50) (PBLUC_HILL_SLOPE 3.6, PBLUC_R_SQUARED 0.311, read-out: LUCIFERASE INFECTION ASSAY - IC50) was 5.32.

Turning to `CC(=O)N1CCCC(c2cc(C(=O)Nc3ccccc3)no2)C1` (stereo not drawn), the IC90 was 1.44 µM. Besides, the pIC50 (FFLUC_HILL_SLOPE 1.94, FFLUC_R_SQUARED 0.745, PBLUC_HILL_SLOPE 0.811, PBLUC_R_SQUARED 0.626, read-out: LUCIFERASE INFECTION ASSAY - IC50) was 7.02.

In the case of `COc1cc(C(=O)OC(C)C(=O)Nc2sccc2C(N)=O)ccc1C` (stereo not drawn), the 90% effect concentration (IC90) is above 10 µM. Under setting [1], the pIC50 is below 5.00.

Regarding `COc1ccccc1NC(=O)c1ccc(NC(=O)Cn2ncc(Cl)c(Cl)c2=O)cc1`, the IC90 came out at 4.54 µM. Under setting [1], the pIC50 is 5.47.

As for `C/C(=N\NC(=S)Nc1ccc(Cl)cc1)c1ccn[nH]1`, the 90% effect concentration (IC90) turned out to be 4.51 µM. The pIC50 (HEPG2TOX_HILL_SLOPE 2.63, HEPG2TOX_R_SQUARED 0.844, PBLUC_HILL_SLOPE 3.05, PBLUC_R_SQUARED 0.682, read-out: LUCIFERASE INFECTION ASSAY - IC50) was 5.66.

As to `CC(C)(C)C1CCC2(CC1)NC(=O)N(CC(=O)OCC(=O)N1CCN(Cc3ccccc3)C1=O)C2=O` (stereo not drawn), the IC90 is above 10 µM. For the same compound, under setting [1], the negative logarithm of the IC50 (pIC50) is below 5.00.

Take `CCN(CC)C(=S)SCC(=O)c1cc(C)n(-c2ccccc2)c1C`: the IC90 was above 10 µM. The pIC50 under setting [1] was 5.31.

`O=C(Nc1nc2ccccc2[nH]1)c1ccccn1`: the IC90 was above 10 µM. Further, the pIC50 (FFLUC_HILL_SLOPE 12.7, FFLUC_R_SQUARED 0.6, read-out: LUCIFERASE INFECTION ASSAY - IC50) was below 5.00.

For `CC(=O)NCCNC(=O)c1ccc(OCC2CCCO2)cc1` (stereo not drawn), the 90% effect concentration (IC90) is above 2 µM. For the same compound, under setting [1], the negative-log IC50 (pIC50) was below 5.70.

In the case of `O=C1C(=O)N(CCN2CCOCC2)c2ccc(Cl)cc21`, the IC90 stood at 9.44 µM. In addition, the pIC50 (PBLUC_HILL_SLOPE 1.82, PBLUC_R_SQUARED 0.307, read-out: LUCIFERASE INFECTION ASSAY - IC50) is 5.55.

For the compound `CC1CCc2nc3ccccc3c(C(=O)OC(C)C(=O)NCCC3=CCCCC3)c2C1` (stereo not drawn), the IC90 was above 10 µM. In addition, the negative-log IC50 (pIC50) under setting [1] is below 5.00.
